Assay results reported in US7576087B2, “Heterocyclyl-3-sulfonylazaindole or -azaindazole derivatives as 5-hydroxytryptamine-6 ligands” (Wyeth, priority 2003, dated 2009).
Where a name gives a salt, the structure may show the parent alone.

Molecular target: human cloned 5-HT6 receptors (Homo sapiens, UniProt P50406)
Sequence (P50406 whole entry): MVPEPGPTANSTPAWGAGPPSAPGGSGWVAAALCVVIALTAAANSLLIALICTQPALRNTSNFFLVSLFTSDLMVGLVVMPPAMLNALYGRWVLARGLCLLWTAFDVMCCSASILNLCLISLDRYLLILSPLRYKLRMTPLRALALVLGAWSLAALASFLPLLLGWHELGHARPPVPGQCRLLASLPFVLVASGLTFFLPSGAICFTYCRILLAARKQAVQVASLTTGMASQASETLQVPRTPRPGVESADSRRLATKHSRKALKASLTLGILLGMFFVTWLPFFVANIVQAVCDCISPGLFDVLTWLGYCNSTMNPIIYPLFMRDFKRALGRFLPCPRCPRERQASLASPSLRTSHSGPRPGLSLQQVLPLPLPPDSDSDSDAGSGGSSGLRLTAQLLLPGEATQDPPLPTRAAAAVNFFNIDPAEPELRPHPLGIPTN

Row | Ki [µM] | Structure (SMILES)
1 | 0.034 | CN1CCN(c2ccc3[nH]nc(S(=O)(=O)c4ccccc4)c3n2)CC1 [Example 4, 5-(4-methylpiperazin-1-yl)-3-(phenylsulfonyl)-1H-pyrazolo-[4,3-b]pyridine hydrochloride]
2 | 0.03 | O=S(=O)(c1ccccc1)c1c[nH]c2ccc(N3CCN(Cc4ccccc4)CC3)nc12 [Example 8, 5-(4-Benzylpiperazin-1-yl)-3-(phenylsulfonyl)-1H-pyrrolo[3,2-b]pyridine]
3 | 0.002 | O=S(=O)(c1ccccc1)c1c[nH]c2ccc(N3CCNCC3)nc12 [Example 9, 3-(Phenylsulfonyl)-5-piperazin-1-yl-1H-pyrrolo[3,2-b]pyridine Dihydrochloride]
